Tested on: R223X stop codon in the mutated luciferase gene, ADXC8 luciferase reporter cell line
Assay: cells
Format: cell-based
Conditions: for Emax / EC (100% of 200 uM G418 response): 24 h; for Emax: read-out: Fold Over Control, maximum fold response relative to 200 μM G418; for EC (100% of 200 uM G418 response): read-out: pC100%, negative logarithm of the concentration giving the same response as 200 μM G418; for pC100%: negative logarithm of the concentration giving the same response as 200 μM G418

SMILES | Emax (ADXC8 cells, 24 hours) | EC (100% of 200 uM G418 response) (ADXC8 cells, 24 hours) | pC100% response (assayed at a concentration of 300 μM, C100% = concentration giving the same response as 200 μM G418) | Fold Over Control (maximum fold response relative to 200 μM G418, ADXC8 cells, 24 hours) | pC100% (ADXC8 cells, 24 hours)
COCc1cnc2nc(NC3CCN(C)CC3)nc(N)c2c1 [Example 242, 6-(methoxymethyl)-N^2-(1-methylpiperidin-4-yl)pyrido[2,3-d]pyrimidine-2,4-diamine] | 0 to 100% | > 100 µM |  |  | 
CNc1nc(N[C@H]2C3CC[C@@H]2NC3)nc2nc(C)cc(C)c12 [Example 444] | 100 to 3000% | 10 to 100 µM |  |  | 
Cc1cc(C)c2c(N)nc(NCCN(C)c3ccccc3)nc2n1 [Example 143] | 0 to 100% | > 31.6 µM |  |  | 
Cc1cc(C)c2c(N)nc(NCC3CC4(CNC4)C3)nc2n1 [Example 208] | 0 to 100% | > 31.6 µM |  |  | 
CNc1nc(N[C@]2(C)CCN(C)C2)nc2nc(C)cc(C)c12 [Example 388] | 0 to 100% | > 31.6 µM |  |  | 
Cc1nc2nc(N[C@@H]3CCNC3)nc(N)c2c2c1CCC2 [Example 295] |  | 0.1 to 1 µM |  |  | 
COc1cccc(-c2ccc3c(N)nc(NC4CCN(C)CC4)nc3n2)c1 [Example 100] | 100 to 3000% | 1 to 10 µM |  |  | 
CC(=O)Nc1ccccc1-c1ccc2c(N)nc(NC3CCN(C)CC3)nc2n1 [Example 60] | 0 to 100% | > 100 µM |  |  | 
CNc1nc(N[C@@H]2CCN(C)C2)nc2nc3c(c(C)c12)CCO3 [Example 514, (R)—N^4,5-dimethyl-N^2-(1-methylpyrrolidin-3-yl)-6,7-dihydrofuro[3′,2′:5,6]pyrido[2,3-d]pyrimidine-2,4-diamine] | 100 to 3000% | 1 to 10 µM |  |  | 
CNc1nc(NC2CCN(Cc3ccc(C#N)cc3)CC2)nc2nc(C)cc(C)c12 [Example 580] | 100 to 3000% | 1 to 10 µM |  |  | 
Nc1nc(N)c2nc(-c3ccccc3)c(N)nc2n1 [triamterene, reference compound] | 0 to 100% | > 100 µM | not reached |  | 
Cc1cc(C)c2c(N)nc(NC3CCN(Cc4ccncc4C(F)F)CC3)nc2n1 [Example 533] | 100 to 3000% | 10 to 100 µM |  |  | 
CN1CCC(Nc2nc(N)c3ccc(-c4ccccc4F)nc3n2)CC1 [Example 88] |  | 1 to 10 µM |  |  | 
CNc1nc(N[C@H]2CNC[C@H]2CO)nc2nc(C)cc(C)c12 [Example 418] |  | 1 to 10 µM |  |  | 
CN1CCC(Nc2nc(N)c3ccc(-c4ccccc4O)nc3n2)CC1 [Example 106] | 0 to 100% | > 100 µM |  |  | 
Cc1cc(C)c2c(N)nc(NC3CCN(Cc4cncs4)CC3)nc2n1 [Example 459] | 100 to 3000% | 1 to 10 µM |  |  | 
CNc1nc(N[C@H]2CNC[C@@H]2O)nc2nc(C)c3c(c12)CCC3 [Example 344] |  | 0.01 to 0.1 µM |  |  | 
Cc1cc(C)c2c(NCc3cccnc3)nc(NC3CCN(C)CC3)nc2n1 [Example 318] | 0 to 100% | > 31.6 µM |  |  | 
Cc1cc(C)c2c(N)nc(NC3CCN(Cc4ccccc4C#N)CC3)nc2n1 [Example 500] | 100 to 3000% | 1 to 10 µM |  |  | 
CNc1nc(NC2C3CNC2C3)nc2nc(C)cc(C)c12 (single isomer, unassigned) [Example 448] |  |  |  | # (Fold over Ctrl ≥ 0 ≤ 1) | * (pC100 ≤ 4.5)
Cc1cc(C)c2c(N)nc(NC3CCN(Cc4cccc(S(C)(=O)=O)c4)CC3)nc2n1 [Example 496] | 100 to 3000% | 10 to 100 µM |  |  | 

SMILES | Emax (ADXC8 cells, 24 hours) | EC (100% of 200 uM G418 response) (ADXC8 cells, 24 hours) | pC100% response (assayed at a concentration of 300 μM, C100% = concentration giving the same response as 200 μM G418) | Fold Over Control (maximum fold response relative to 200 μM G418, ADXC8 cells, 24 hours) | pC100% (ADXC8 cells, 24 hours)
CNc1nc(N[C@@H]2CCCNCC2)nc2nc(C)cc(C)c12 [Example 402] |  | 1 to 10 µM |  |  | 
Cc1cc(C)c2c(N)nc(N[C@H]3CCNC3)nc2n1 [Example 292] | 100 to 3000% | 1 to 10 µM |  |  | 
CNc1nc(NC23CCCN(CC2)C3)nc2nc(C)cc(C)c12 (centres unmarked) [Example 416] | 0 to 100% | > 31.6 µM |  |  | 
Cc1cc(C)c2c(N)nc(NC3C[C@H]4CCC[C@@H](C3)N4C)nc2n1 (some centres unmarked) [Example 211] | 100 to 3000% | 1 to 10 µM |  |  | 
Cc1cc(C)c2c(N)nc(NC3CCN(Cc4cnn(C)c4)CC3)nc2n1 [Example 568] | 100 to 3000% | 1 to 10 µM |  |  | 
CN1CCC(Nc2nc(N)c3ccc(-c4cccc(Cl)c4)nc3n2)CC1 [Example 91] |  | 1 to 10 µM |  |  | 
COCc1ccc(-c2ccc3c(N)nc(NC4CCN(C)CC4)nc3n2)cc1 [Example 78] | 100 to 3000% | 1 to 10 µM |  |  | 
CN(C)Cc1ccc(-c2ccc3c(N)nc(NC4CCN(C)CC4)nc3n2)cc1 [Example 105] | 100 to 3000% | 10 to 100 µM |  |  | 
CC(CO)c1ccc2c(N)nc(NC3CCN(C)CC3)nc2n1 (centres unmarked) [Example 240, 2-(4-amino-2-((1-methylpiperidin-4-yl)amino)pyrido[2,3-d]pyrimidin-7-yl)propan-1-ol] | 0 to 100% | > 100 µM |  |  | 
CNc1nc(N[C@@H]2CCN(C)C2)nc2nc(C)cc(C)c12 [Example 327] | 100 to 3000% | 1 to 10 µM |  |  | 
CNc1cc(N[C@H]2CNC[C@@H]2O)nc2nc3c(c(C)c12)CCC3 [Example 635] |  | 1 to 10 µM |  |  | 
Cc1cc(C)c2c(N)nc(NCCNCC(F)F)nc2n1 [Example 168] | 100 to 3000% | 10 to 100 µM |  |  | 
Cc1nc2nc(NC3CCN(C)CC3)nc(N)c2cc1Br [Example 21, 6-bromo-7-methyl-N-(1-methylpiperidin-4-yl)pyrido[2,3-d]pyrimidine-2,4-diamine] | 100 to 3000% | 1 to 10 µM |  |  | 
CNc1nc(N[C@H]2CNC[C@@H](O)C2)nc2nc(C)cc(C)c12 [Example 610] |  | 1 to 10 µM |  |  | 
Cc1cc(C)c2c(N3CCOCC3)nc(NC3CCN(C)CC3)nc2n1 [Example 266] | 0 to 100% | > 100 µM |  |  | 
Cc1cc(C)c2c(N)nc(NC3CCN(Cc4ccc(F)cc4)CC3)nc2n1 [Example 457] | 100 to 3000% | 0.1 to 1 µM |  |  | 
Cc1c2c(nc3nc(NC4CCN(Cc5cc(F)cc(F)c5O)CC4)nc(N)c13)CCC2 [Example 654] | 100 to 3000% | 1 to 10 µM |  |  | 
CNc1nc(N[C@@H]2C[C@@H](C)N(C)C2)nc2nc(C)cc(C)c12 [Example 375] | 100 to 3000% | 0.1 to 1 µM |  |  | 
CNc1nc(N[C@H]2CNC[C@H]2C)nc2nc(C)cc(C)c12 [Example 380] | 100 to 3000% | 1 to 10 µM |  |  | 
CN1CCC(Nc2nc(N)c3ccc(-c4ccc(C(F)(F)F)cc4)nc3n2)CC1 [Example 66] | 0 to 100% | > 100 µM |  |  | 
COc1cnc2nc(NC3CCN(C)CC3)nc(N)c2c1 [Example 241, 6-methoxy-N^2-(1-methylpiperidin-4-yl)pyrido[2,3-d]pyrimidine-2,4-diamine] | 0 to 100% | > 31.6 µM |  |  | 

SMILES | Emax (ADXC8 cells, 24 hours) | EC (100% of 200 uM G418 response) (ADXC8 cells, 24 hours) | pC100% response (assayed at a concentration of 300 μM, C100% = concentration giving the same response as 200 μM G418) | Fold Over Control (maximum fold response relative to 200 μM G418, ADXC8 cells, 24 hours) | pC100% (ADXC8 cells, 24 hours)
Cc1cc(C)c2c(N)nc(N[C@@H]3CCNC[C@H]3O)nc2n1 [Example 180] | 100 to 3000% | 1 to 10 µM |  |  | 
CNc1nc(N[C@@H]2CNC[C@H]2O)nc2nc3c(c(C)c12)CCC3 [Example 546] | 100 to 3000% | 1 to 10 µM |  |  | 
CNc1nc(N[C@H]2CNC[C@H]2O)nc2nc(C)cc(C)c12 [Example 326] | 0 to 100% | > 31.6 µM |  |  | 
Cc1cc(C)c2c(N)nc(NC3CCN(Cc4ncco4)CC3)nc2n1 [Example 473] | 100 to 3000% | 10 to 100 µM |  |  | 
CC(=O)NCCNc1nc(NC2CCN(C)CC2)nc2nc(C)cc(C)c12 [Example 355] | 0 to 100% | > 31.6 µM |  |  | 
[2H]C([2H])([2H])Nc1nc(NC2CCNCC2)nc2nc(C)cc(C)c12 [Example 589] |  | 1 to 10 µM |  |  | 
Cc1cc(C)c2c(N)nc(NCC3CCNCC3)nc2n1 [Example 141, 5,7-dimethyl-N^2-(piperidin-4-ylmethyl)pyrido[2,3-d]pyrimidine-2,4-diamine] | 100 to 3000% | 10 to 100 µM |  |  | 
Cc1cc(-c2ccccc2)nc2nc(NCCCN3CCOCC3)nc(N)c12 [Example 120, 5-methyl-N2-(3-morpholinopropyl)-7-phenylpyrido[2,3-d]pyrimidine-2,4-diamine] | 100 to 3000% | 1 to 10 µM |  |  | 
CNc1cc(N[C@H]2CNC[C@H]2OC)nc2nc3c(c(C)c12)CCC3 [Example 617] | 100 to 3000% | 1 to 10 µM |  |  | 
Cc1cc(C)c2c(N)nc(NCCN3CCC4(CCOCC4)C3)nc2n1 [Example 165] | 0 to 100% | > 31.6 µM |  |  | 
CNc1nc(NC2CC3CC2CN3C)nc2nc(C)cc(C)c12 (single isomer, unassigned) [Example 431] | 100 to 3000% |  |  |  | + (pC100% > 4.0 ≤ 5.0)
CNc1ccc(-c2ccc3c(N)nc(NC4CCN(C)CC4)nc3n2)cc1 [Example 53] | 100 to 3000% | 1 to 10 µM |  |  | 
Cc1nc2nc(NC3CCN(Cc4ccc(C#N)cc4F)CC3)nc(N)c2c2c1CCC2 [Example 527] | 100 to 3000% | 0.1 to 1 µM |  |  | 
Cc1cc(C)c2c(N)nc(NC3CCN(Cc4cccc(C(N)=O)c4)CC3)nc2n1 [Example 484] | 100 to 3000% | 10 to 100 µM |  |  | 
Cc1cc(C)c2c(N)nc(N[C@H]3CCCNC3)nc2n1 [Example 352] | 100 to 3000% | 10 to 100 µM |  |  | 
C=C(C)c1ccnc2nc(NC3CCN(C)CC3)nc(N)c12 [Example 245, N^2-(1-methylpiperidin-4-yl)-5-(prop-1-en-2-yl)pyrido[2,3-d]pyrimidine-2,4-diamine] | 0 to 100% | > 100 µM |  |  | 
CC(=O)Nc1cccc(-c2ccc3c(N)nc(NC4CCN(C)CC4)nc3n2)c1 [Example 64] | 0 to 100% | > 100 µM |  |  | 
Cc1cc(C)c2c(N)nc(N[C@@H]3CCNC[C@@H]3F)nc2n1 [Example 586] |  | 1 to 10 µM |  |  | 
CNc1nc(N[C@@H]2C[C@@H](O)CN(C)C2)nc2nc(C)cc(C)c12 [Example 604] | 100 to 3000% | 1 to 10 µM |  |  | 

— patent US20260234144A1 (TAY THERAPEUTICS LIMITED, priority 2023, published 2026)
